ChEMBL document CHEMBL2380212, “Synthesis, single crystal and antitumor activities of benzimidazole-quinazoline hybrids” (Bioorg Med Chem Lett, 2013)

Key:
[1] = n-Octanol-phosphate buffer partition coefficient, log P of the compound at pH 7.4 by shake flask method; format: physicochemical
[2] = tested on: BT-549; experiment: Cytotoxicity against human BT549 cells at 10 uM after 48 hrs by SRB assay; format: functional; settings: BT-549, 48 h, read-out: GI
[3] = tested on: T47D; experiment: Cytotoxicity against human T47D cells at 10 uM after 48 hrs by SRB assay; format: functional; settings: read-out: GI
[4] = tested on: MCF7; experiment: Cytotoxicity against human MCF7 cells at 10 uM after 48 hrs by SRB assay; format: functional; settings: MCF7, 48 h, read-out: GI
[5] = tested on: MDA-MB-231; experiment: Cytotoxicity against human MDA-MB-231 cells at 10 uM after 48 hrs by SRB assay; format: functional; settings: MDA-MB-231, 48 h, read-out: GI
[6] = tested on: DU-145; experiment: Cytotoxicity against human DU145 cells at 10 uM after 48 hrs by SRB assay; format: functional; settings: DU-145, 48 h, read-out: GI
[7] = tested on: UO-31; experiment: Cytotoxicity against human UO31 cells at 10 uM after 48 hrs by SRB assay; format: functional; settings: UO-31, 48 h, read-out: GI
[8] = tested on: PC-3; experiment: Cytotoxicity against human PC3 cells at 10 uM after 48 hrs by SRB assay; format: functional; settings: PC-3, 48 h, read-out: GI
[9] = tested on: TK-10; experiment: Cytotoxicity against human TK10 cells at 10 uM after 48 hrs by SRB assay; format: functional; settings: TK-10, 48 h, read-out: GI
[10] = tested on: RXF 393; experiment: Cytotoxicity against human RXF393 cells at 10 uM after 48 hrs by SRB assay; format: functional; settings: RXF 393, 48 h, read-out: GI
[11] = tested on: SN12C; experiment: Cytotoxicity against human SN12C cells at 10 uM after 48 hrs by SRB assay; format: functional; settings: read-out: GI
[12] = tested on: CAKI-1; experiment: Cytotoxicity against human Caki1 cells at 10 uM after 48 hrs by SRB assay; format: functional; settings: CAKI-1, 48 h, read-out: GI
[13] = tested on: ACHN; experiment: Cytotoxicity against human ACHN cells at 10 uM after 48 hrs by SRB assay; format: functional; settings: read-out: GI
[14] = tested on: 786-0; experiment: Cytotoxicity against human 786-0 cells at 10 uM after 48 hrs by SRB assay; format: functional; settings: 786-0, 48 h, read-out: GI
[15] = tested on: SK-OV-3; experiment: Cytotoxicity against human SKOV3 cells at 10 uM after 48 hrs by SRB assay; format: functional; settings: SK-OV-3, 48 h, read-out: GI
[16] = tested on: NCI/ADR-RES; experiment: Cytotoxicity against human NCI/ADR-RES cells at 10 uM after 48 hrs by SRB assay; format: functional; settings: read-out: GI
[17] = tested on: OVCAR-5; experiment: Cytotoxicity against human OVCAR5 cells at 10 uM after 48 hrs by SRB assay; format: functional; settings: OVCAR-5, 48 h, read-out: GI
[18] = tested on: OVCAR-4; experiment: Cytotoxicity against human OVCAR4 cells at 10 uM after 48 hrs by SRB assay; format: functional; settings: OVCAR-4, 48 h, read-out: GI
[19] = tested on: OVCAR-3; experiment: Cytotoxicity against human OVCAR3 cells at 10 uM after 48 hrs by SRB assay; format: functional; settings: OVCAR-3, 48 h, read-out: GI
[20] = tested on: IGROV-1; experiment: Cytotoxicity against human IGROV1 cells at 10 uM after 48 hrs by SRB assay; format: functional; settings: IGROV-1, 48 h, read-out: GI
[21] = tested on: UACC-62; experiment: Cytotoxicity against human UACC62 cells at 10 uM after 48 hrs by SRB assay; format: functional; settings: UACC-62, 48 h, read-out: GI
[22] = tested on: UACC-257; experiment: Cytotoxicity against human UACC257 cells at 10 uM after 48 hrs by SRB assay; format: functional; settings: UACC-257, 48 h, read-out: GI
[23] = tested on: SK-MEL-5; experiment: Cytotoxicity against human SK-MEL-5 cells at 10 uM after 48 hrs by SRB assay; format: functional; settings: SK-MEL-5, 48 h, read-out: GI
[24] = tested on: SK-MEL-2; experiment: Cytotoxicity against human SK-MEL-2 cells at 10 uM after 48 hrs by SRB assay; format: functional; settings: SK-MEL-2, 48 h, read-out: GI
[25] = tested on: MDA-MB-435; experiment: Cytotoxicity against human MDA-MB-435 cells at 10 uM after 48 hrs by SRB assay; format: functional; settings: MDA-MB-435, 48 h, read-out: GI
[26] = tested on: Malme-3M; experiment: Cytotoxicity against human MALME-3M cells at 10 uM after 48 hrs by SRB assay; format: functional; settings: read-out: GI
[27] = tested on: U-251; experiment: Cytotoxicity against human U251 cells at 10 uM after 48 hrs by SRB assay; format: functional; settings: U-251, 48 h, read-out: GI
[28] = tested on: LOX IMVI; experiment: Cytotoxicity against human LOXIMVI cells at 10 uM after 48 hrs by SRB assay; format: functional; settings: read-out: GI
[29] = tested on: SNB-75; experiment: Cytotoxicity against human SNB75 cells at 10 uM after 48 hrs by SRB assay; format: functional; settings: SNB-75, 48 h, read-out: GI
[30] = tested on: SNB-19; experiment: Cytotoxicity against human SNB19 cells at 10 uM after 48 hrs by SRB assay; format: functional; settings: SNB-19, 48 h, read-out: GI
[31] = tested on: SF-295; experiment: Cytotoxicity against human SF295 cells at 10 uM after 48 hrs by SRB assay; format: functional; settings: SF-295, 48 h, read-out: GI
[32] = tested on: SF-268; experiment: Cytotoxicity against human SF268 cells at 10 uM after 48 hrs by SRB assay; format: functional; settings: SF-268, 48 h, read-out: GI
[33] = tested on: SW-620; experiment: Cytotoxicity against human SW620 cells at 10 uM after 48 hrs by SRB assay; format: functional; settings: SW-620, 48 h, read-out: GI
[34] = tested on: KM12; experiment: Cytotoxicity against human KM12 cells at 10 uM after 48 hrs by SRB assay; format: functional; settings: KM12, 48 h, read-out: GI
[35] = tested on: HT-29; experiment: Cytotoxicity against human HT-29 cells at 10 uM after 48 hrs by SRB assay; format: functional; settings: HT-29, 48 h, read-out: GI
[36] = tested on: HCT-15; experiment: Cytotoxicity against human HCT15 cells at 10 uM after 48 hrs by SRB assay; format: functional; settings: HCT-15, 48 h, read-out: GI
[37] = tested on: HCT-116; experiment: Cytotoxicity against human HCT116 cells at 10 uM after 48 hrs by SRB assay; format: functional; settings: HCT-116, 48 h, read-out: GI
[38] = tested on: COLO 205; experiment: Cytotoxicity against human COLO205 cells at 10 uM after 48 hrs by SRB assay; format: functional; settings: COLO 205, 48 h, read-out: GI
[39] = tested on: NCI-H522; experiment: Cytotoxicity against human NCI-H522 cells at 10 uM after 48 hrs by SRB assay; format: functional; settings: NCI-H522, 48 h, read-out: GI
[40] = tested on: NCI-H460; experiment: Cytotoxicity against human NCI-H460 cells at 10 uM after 48 hrs by SRB assay; format: functional; settings: NCI-H460, 48 h, read-out: GI
[41] = tested on: NCI-H322M; experiment: Cytotoxicity against human NCI-H322M cells at 10 uM after 48 hrs by SRB assay; format: functional; settings: read-out: GI
[42] = tested on: NCI-H226; experiment: Cytotoxicity against human NCI-H226 cells at 10 uM after 48 hrs by SRB assay; format: functional; settings: NCI-H226, 48 h, read-out: GI
[43] = tested on: NCI-H23; experiment: Cytotoxicity against human NCI-H23 cells at 10 uM after 48 hrs by SRB assay; format: functional; settings: NCI-H23, 48 h, read-out: GI
[44] = tested on: HOP-62; experiment: Cytotoxicity against human HOP62 cells at 10 uM after 48 hrs by SRB assay; format: functional; settings: HOP-62, 48 h, read-out: GI
[45] = tested on: HOP-92; experiment: Cytotoxicity against human HOP92 cells at 10 uM after 48 hrs by SRB assay; format: functional; settings: HOP-92, 48 h, read-out: GI
[46] = Cytotoxicity against human EKVX cells at 10 uM after 48 hrs by SRB assay; format: functional; settings: read-out: GI
[47] = tested on: A549; experiment: Cytotoxicity against human A549 cells at 10 uM after 48 hrs by SRB assay; format: functional; settings: A549, 48 h, read-out: GI
[48] = tested on: SR; experiment: Cytotoxicity against human SR cells at 10 uM after 48 hrs by SRB assay; format: functional; settings: read-out: GI
[49] = tested on: MOLT-4; experiment: Cytotoxicity against human MOLT4 cells at 10 uM after 48 hrs by SRB assay; format: functional; settings: MOLT-4, 48 h, read-out: GI
[50] = tested on: RPMI-8226; experiment: Cytotoxicity against human RPMI8226 cells at 10 uM after 48 hrs by SRB assay; format: functional; settings: RPMI-8226, 48 h, read-out: GI
[51] = tested on: K562; experiment: Cytotoxicity against human K562 cells at 10 uM after 48 hrs by SRB assay; format: functional; settings: K562, 48 h, read-out: GI
[52] = tested on: HL-60(TB); experiment: Cytotoxicity against human HL-60(TB) cells at 10 uM after 48 hrs by SRB assay; format: functional; settings: HL-60, 48 h, read-out: GI
[53] = tested on: CCRF-CEM; experiment: Cytotoxicity against human CCRF-CEM cells at 10 uM after 48 hrs by SRB assay; format: functional; settings: read-out: GI

## C=CCn1c(C)nc2ccc(Nc3nc(N4CCCCC4)nc4ccccc34)cc21
[1]
  logD: 2.72

## O=c1[nH]cc(F)c(=O)[nH]1 [FLUOROURACIL]
[2]
  inhibition of growth at 10 µM: 37.8%
[3]
  inhibition of growth at 10 µM: 56.7%
[4]
  inhibition of growth at 10 µM: 11.5%
[5]
  inhibition of growth at 10 µM: 78.1%
[6]
  inhibition of growth at 10 µM: 35.5%
[7]
  inhibition of growth at 10 µM: 41.3%
[8]
  inhibition of growth at 10 µM: 58.2%
[9]
  inhibition of growth at 10 µM: 66.9%
[10]
  inhibition of growth at 10 µM: 34.3%
[11]
  inhibition of growth at 10 µM: 54%
[12]
  inhibition of growth at 10 µM: 39.4%
[13]
  inhibition of growth at 10 µM: 39.3%
[14]
  inhibition of growth at 10 µM: 48.7%
[15]
  inhibition of growth at 10 µM: 77.5%
[16]
  inhibition of growth at 10 µM: 47.6%
[17]
  inhibition of growth at 10 µM: 44.3%
[18]
  inhibition of growth at 10 µM: 59.4%
[19]
  inhibition of growth at 10 µM: 47.4%
[20]
  inhibition of growth at 10 µM: 51.2%
[21]
  inhibition of growth at 10 µM: 39.7%
[22]
  inhibition of growth at 10 µM: 19.5%
[23]
  inhibition of growth at 10 µM: 33.7%
[24]
  inhibition of growth at 10 µM: 95.5%
[25]
  inhibition of growth at 10 µM: 36.6%
[26]
  inhibition of growth at 10 µM: 58.2%
[27]
  inhibition of growth at 10 µM: 50.3%
[28]
  inhibition of growth at 10 µM: 30.4%
[29]
  inhibition of growth at 10 µM: 65.9%
[30]
  inhibition of growth at 10 µM: 65.9%
[31]
  inhibition of growth at 10 µM: 69.1%
[32]
  inhibition of growth at 10 µM: 59%
[33]
  inhibition of growth at 10 µM: 50.1%
[34]
  inhibition of growth at 10 µM: 40.7%
[35]
  inhibition of growth at 10 µM: 27.1%
[36]
  inhibition of growth at 10 µM: 26.5%
[37]
  inhibition of growth at 10 µM: 17.8%
[38]
  inhibition of growth at 10 µM: 40.2%
[39]
  inhibition of growth at 10 µM: 58%
[40]
  inhibition of growth at 10 µM: 13%
[41]
  inhibition of growth at 10 µM: 59.5%
[42]
  inhibition of growth at 10 µM: 69.5%
[43]
  inhibition of growth at 10 µM: 39%
[44]
  inhibition of growth at 10 µM: 47.8%
[45]
  inhibition of growth at 10 µM: 50.6%
[46]
  inhibition of growth at 10 µM: 58.4%
[47]
  inhibition of growth at 10 µM: 34.2%
[48]
  inhibition of growth at 10 µM: 24.8%
[49]
  inhibition of growth at 10 µM: 43.1%
[50]
  inhibition of growth at 10 µM: 41.4%
[51]
  inhibition of growth at 10 µM: 42.3%
[52]
  inhibition of growth at 10 µM: 47.9%
[53]
  inhibition of growth at 10 µM: 57.1%
